In US20250222050A1, “Chlorella and Corn Leaf Extract Compositions, Their Production, and Methods of Use” (Unigen, Inc., priority 2024, published 2025):

Columns and labels:
Type in all cases: in vivo
BALB/C mice [1] = assay: Sleep time (duration) after pentobarbital sodium; details: oral 1 mg/kg, 46 mg/kg pentobarbital sodium i.p. 15 min after last dose
Experimental: Purpose bred BALB/C mice (n=405; male, 20 g-22 g) were purchased from Beijing Hua Fukang biological technologies Inc (Beijing, China). […] Mice were kept in specific pathogen free, temperature-controlled room and fed with rodent diet purchased from Beijing Hua Fukang biological technologies Inc (Beijing, China). Three consecutive studies were carried out. Mice were randomly assigned into 9 groups for each experiment. Fifteen mice were allocated in each group.
The amount of time spent sleeping was determined by injecting mice with 46 mg/kg pentobarbital sodium, intraperitoneally, 15 minutes after administration of the last dose of the test materials. The sleep time of each mouse was recorded and the difference of sleep time between tested materials and vehicle control were analyzed.

BALB/C mice [2] = assay: Sleep incidence under hypnotic subthreshold dose of pentobarbital; details: mice n=15, oral 1 mg/kg; 32 mg/kg pentobarbital i.p. 15 min after last dose
Experimental: The numbers of mice that lost turnover to the right side over 1 min following injection of pentobarbital were recorded. The incidence of sleeping mice was analyzed to compare the difference between the tested substance groups and vehicle control. All the experiments were conducted at night.

BALB/C mice [3] = assay: 60-minute direct effect (direct sleep) test, no pentobarbital
Experimental: Purpose bred BALB/C mice (n=405; male, 20 g-22 g) were purchased from Beijing Hua Fukang biological technologies Inc (Beijing, China). The study was carried out at Testing Center for the functions of Health Foods, College of Arts and science of Beijing Union University (Beijing, China). Mice were kept in specific pathogen free, temperature-controlled room and fed with rodent diet purchased from Beijing Hua Fukang biological technologies Inc (Beijing, China). Three consecutive studies were carried out. Mice were randomly assigned into 9 groups for each experiment. Fifteen mice were allocated in each group. The first experiment was set to determine the sleep incidence effect of test materials. The second experiment was designed to detect the total sleep time under the hypnotic subthreshold dose of pentobarbital sodium (Lot #: 34E10320, Beijing Dingguo Changsheng Biotechnology Co. Ltd). The third experiment was set to detect sleep latency induced by barbital sodium (Lot #: 527B051, Merck).
Zea mays (corn) leaf extract standardized at not less than 0.2% 6-MBOA (Lot #: FP210105-01) and Chlorella Powder (Lot #: 222A) were suspended with sterile water. Melatonin purchased from By-Health Co. Ltd. (Beijing, China) was used as a reference compound in each study. All mice were orally administrated with test materials in a volume of 20 mL/kg BW/day. Study lasted for 31 days. […]

BALB/C mice [4] = assay: Sleep latency induced by barbital sodium
Experimental: Purpose bred BALB/C mice (n=405; male, 20 g-22 g) were purchased from Beijing Hua Fukang biological technologies Inc (Beijing, China). The study was carried out at Testing Center for the functions of Health Foods, College of Arts and science of Beijing Union University (Beijing, China). Mice were kept in specific pathogen free, temperature-controlled room and fed with rodent diet purchased from Beijing Hua Fukang biological technologies Inc (Beijing, China). Three consecutive studies were carried out. Mice were randomly assigned into 9 groups for each experiment. Fifteen mice were allocated in each group. […] The third experiment was set to detect sleep latency induced by barbital sodium (Lot #: 527B051, Merck).
Mice were intraperitoneally injected with 240 mg/kg barbital sodium (0.2 mL/20 g body weight), 15 min after the last test material administration. Sleep latency was recorded and the difference in sleep time between the tested substance groups and vehicle control were determined. […]

Compound: COc1ccc2[nH]cc(CCNC(C)=O)c2c1 [Melatonin]
- Sleep Time (sleep duration) (BALB/C mice [1]): 59.7 ± 13.0 min
- Incidence (sleep incidence) (BALB/C mice [2]): 60%
- Numbers of sleeping (BALB/C mice [3]; mice n=15, oral 1 mg/kg, 1 h after administration): 0
- Sleep Time (BALB/C mice [3]; mice, oral 1 mg/kg): 0 min
- sleep latency versus vehicle control (in words) (BALB/C mice [4]; melatonin 1 mg/kg, chlorella 5,000 mg/kg, combination 250 + 5,000 mg/kg): significantly shortened
- Latent Time (sleep onset latency) (BALB/C mice [4]; mice, oral 1 mg/kg, 240 mg/kg barbital sodium i.p. 15 min after last dose): 37.8 ± 12.8 min
